Laboratory results: ChEMBL document CHEMBL3880437, “Modulators of the prostacyclin (PGI2) receptor useful for the treatment of disorders related thereto” (2014)
Active and inactive are the calls of the source. No cut-off for these calls is given here.

Tests used:
[1] = Terminal phase half life in Sprague-Dawley rat at 1.25 mg/kg, po after 0.1 to 21 hrs by LC/MS/MS method; assay type: ADME, organism-based; conditions: in vivo, read-out: beta t1/2 (converted)
[2] = Drug level in bile-duct cannulated male Sprague-Dawley rat treated with sodium 2-(((1r,4r)-4-(((4- Chlorophenyl)(phenyl)carbamoyloxy)methyl)cyclo- hexyl)methoxy)acetate assessed as compound formation at 2 mg/kg, iv; assay type: ADME, organism-based; conditions: in vivo
[3] = test system: Rattus norvegicus; assay: Tmax in Sprague-Dawley rat assessed as 2-(((1r,4r)-4-(((4-Chlorophenyl)(phenyl)carbamoy-loxy)methyl)cyclohexyl)methoxy)acetic acid level at 1.25 mg/kg, po by LC/MS/MS method; assay type: ADME, organism-based; conditions: in vivo
[4] = Drug level in bile-duct cannulated male Sprague-Dawley rat treated with sodium 2-(((1r,4r)-4-(((4- Chlorophenyl)(phenyl)carbamoyloxy)methyl)cyclo- hexyl)methoxy)acetate assessed as compound formation in bile at 2 mg/kg, iv; assay type: ADME, organism-based; conditions: in vivo
[5] = test system: Rattus norvegicus; assay: AUC(last) in Sprague-Dawley rat assessed as 2-(((1r,4r)-4-(((4-Chlorophenyl)(phenyl)carbamoy-loxy)methyl)cyclohexyl)methoxy)acetic acid level at 1.25 mg/kg, po after 0.1 to 21 hrs by LC/MS/MS method; assay type: ADME, organism-based; set-up: dose 1.25 mg/kg, route oral, time 0 - last; conditions: in vivo
[6] = Drug level in bile-duct cannulated male Sprague-Dawley rat treated with sodium 2-(((1r,4r)-4-(((4- Chlorophenyl)(phenyl)carbamoyloxy)methyl)cyclo-hexyl)methoxy)acetate assessed as compound formation in urine at 2 mg/kg, iv; assay type: ADME, organism-based; conditions: in vivo
[7] = test system: Rattus norvegicus; assay: Cmax in Sprague-Dawley rat assessed as 2-(((1r,4r)-4-(((4-Chlorophenyl)(phenyl)carbamoy-loxy)methyl)cyclohexyl)methoxy)acetic acid level at 1.25 mg/kg, po after 2.67 hrs by LC/MS/MS method; assay type: ADME, organism-based; set-up: dose 1.25 mg/kg, route oral; conditions: in vivo
[8] = Terminal phase half life in Sprague-Dawley rat assessed as 2-(((1r,4r)-4-(((4-Chlorophenyl)(phenyl)carbamoy-loxy)methyl)cyclohexyl)methoxy)acetic acid level at 1.25 mg/kg, po after 0.1 to 21 hrs by LC/MS/MS method; assay type: ADME, organism-based; conditions: in vivo
[9] = test system: Platelet; assay: Inhibition of ADP-induced platelet aggregation in human platelet rich plasma pre-incubated for 1 min before ADP addition and measured 3 mins post ADP addition by aggregometry; assay type: functional
[10] = test system: Rattus norvegicus; assay: Tmax in Sprague-Dawley rat assessed as 2-(((1r,4r)-4-(((4-Chlorophenyl)(phenyl)carbamoy-loxy)methyl)cyclohexyl)methoxy)acetic acid level at 10 mg/kg, po by LC/MS/MS method; assay type: ADME, organism-based; conditions: in vivo
[11] = test system: Rattus norvegicus; assay: Inhibition of right ventricle hypertrophic response to monocrotaline-induced pulmonary arterial hypertension assessed as ratio of right ventricular weight to left ventricle plus septum in Wistar rat at 30 mg/kg administered through oral gavage twice daily for 21 consecutive days starting 24 hrs after monocrotaline challenge; assay type: functional, organism-based
[12] = Solubility of the compound in Gelucire 50/13; assay type: physicochemical
[13] = Solubility of the compound in corn oil; assay type: physicochemical
[14] = Solubility of the compound in PEG400; assay type: physicochemical
[15] = Solubility of the compound in Safflower oil; assay type: physicochemical
[16] = Solubility of the compound in Gelucire 44/14; assay type: physicochemical
[17] = Solubility of the compound in TPGS 1000; assay type: physicochemical
[18] = Solubility of the compound in Imwitor 742; assay type: physicochemical
[19] = Solubility of the compound in Lauroglycol 90; assay type: physicochemical
[20] = Solubility of the compound in Cremophor RH40; assay type: physicochemical
[21] = Solubility of the compound in PEG6000; assay type: physicochemical
[22] = Solubility of the compound in Labrasol; assay type: physicochemical
[23] = Stability of the compound in Imwitor 742 assessed as observable API assay loss after 4 weeks in glass vial at 50 degC; assay type: physicochemical; conditions: 672 h
[24] = Stability of the compound in Cremophor RH40 assessed as observable compound degradation after 4 weeks in glass vial at 50 degC; assay type: physicochemical; conditions: 672 h
[25] = Stability of the compound in TPGS 1000 assessed as observable compound degradation after 4 weeks in glass vial at 50 degC; assay type: physicochemical; conditions: 672 h
[26] = Stability of the compound in Imwitor 742 assessed as observable compound degradation after 4 weeks in glass vial at 50 degC; assay type: physicochemical; conditions: 672 h
[27] = Stability of the compound in Cremophor RH40 assessed as observable API assay loss after 4 weeks in glass vial at 50 degC; assay type: physicochemical; conditions: 672 h
[28] = Stability of the compound in TPGS 1000 assessed as observable API assay loss after 4 weeks in glass vial at 50 degC; assay type: physicochemical; conditions: 672 h
[29] = target: Prostacyclin receptor (Homo sapiens, UniProt P43119); assay: Agonist activity at human recombinant prostacyclin receptor expressed in CHO-K1 cells assessed as induction of cAMP accumulation incubated for 1 hr by HTRF assay; assay type: functional, cell-based
Chain of Prostacyclin receptor (P43119 whole entry): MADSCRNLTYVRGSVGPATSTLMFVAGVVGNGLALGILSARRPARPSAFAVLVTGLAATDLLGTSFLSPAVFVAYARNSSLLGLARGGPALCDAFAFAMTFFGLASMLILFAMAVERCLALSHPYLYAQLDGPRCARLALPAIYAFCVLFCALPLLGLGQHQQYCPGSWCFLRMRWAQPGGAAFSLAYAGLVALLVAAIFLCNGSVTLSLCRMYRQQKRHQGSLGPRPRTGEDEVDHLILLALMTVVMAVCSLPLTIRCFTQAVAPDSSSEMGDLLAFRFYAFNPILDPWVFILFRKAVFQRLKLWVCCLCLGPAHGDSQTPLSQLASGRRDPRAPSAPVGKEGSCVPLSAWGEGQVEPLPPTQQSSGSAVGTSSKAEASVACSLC

SMILES | IC50 [9] [nM] | EC50 [29] [nM] | further results
O=C(COC[C@H]1CC[C@H](COC(=O)N(c2ccccc2)c2ccc(Cl)cc2)CC1)NCCS(=O)(=O)O | 10.5 to 1590 |  | half-life [1]: 3.51 h; Drug metabolism [2]: Metabolite_Detected; Tmax [3]: 2.67 h; Drug metabolism [4]: Metabolite_Detected; AUClast [5]: 935 ng·h/mL; Drug metabolism [6]: Metabolite_Notdetected; Cmax [7]: 214 ng/mL; beta t1/2 [8]: 3.24 h; Tmax [10]: 1.5 h
O=C(O)COC[C@H]1CC[C@H](COC(=O)N(c2ccccc2)c2ccc(Cl)cc2)CC1 [listing 1 of 2 here] |  |  | Activity [11]: Active
O=C([O-])COC[C@H]1CC[C@H](COC(=O)N(c2ccccc2)c2ccc(Cl)cc2)CC1.[Na+] |  |  | solubility [12]: < 10000 µg/mL; solubility [13]: < 100 µg/mL; solubility [14]: 4850 µg/mL; solubility [15]: < 100 µg/mL; solubility [16]: 1610 µg/mL; solubility [17]: 2550 µg/mL; solubility [18]: 16200 µg/mL; solubility [19]: 260 µg/mL; solubility [20]: 7820 µg/mL; solubility [21]: < 10000 µg/mL; solubility [22]: 12980 µg/mL
O=C(O)COC[C@H]1CC[C@H](COC(=O)N(c2ccccc2)c2ccc(Cl)cc2)CC1 [listing 2 of 2 here] | 10.5 to 1590 |  | Stability [23]: Stable; Stability [24]: Stable; Stability [25]: Stable; Stability [26]: Stable; Stability [27]: Stable; Stability [28]: Stable
O=C(O)COC[C@H]1CC[C@H](COC(=O)N(c2ccccc2)c2cccc(F)c2)CC1 | 10.5 to 1590 |  | Activity [11]: Active
O=C(O)COC[C@H]1CC[C@H](CNC(=O)N(c2ccccc2)c2cccc(F)c2F)CC1 | 10.5 to 1590 | 2.7 to 2650 | 
CN(C[C@H]1CC[C@H](COCC(=O)O)CC1)C(=O)N(c1ccccc1)c1ccccc1 | 10.5 to 1590 | 2.7 to 2650 | 
O=C(O)COC[C@H]1CC[C@H](COC(=O)N(c2cccc(F)c2)c2cccc(F)c2)CC1 | 10.5 to 1590 | 2.7 to 2650 | 
CCOc1ccc(N(C(=O)OC[C@H]2CC[C@H](COCC(=O)O)CC2)c2ccc(F)cc2)cc1 | 10.5 to 1590 | 2.7 to 2650 | 
O=C(O)COC[C@H]1CC[C@H](COC(=O)N(c2ccccc2)c2cncc(F)c2)CC1 | 10.5 to 1590 | 2.7 to 2650 | 
COc1cccc(N(C(=O)NC[C@H]2CC[C@H](COCC(=O)O)CC2)c2ccccc2)c1F | 10.5 to 1590 | 2.7 to 2650 | 
Cc1cccc(N(C(=O)OC[C@H]2CC[C@@H](COCC(=O)O)CC2)c2ccccc2)c1 | 10.5 to 1590 | 2.7 to 2650 | 
O=C(O)COC[C@H]1CC[C@H](COC(=O)N(c2ccccc2)c2ccc(Cl)c(F)c2)CC1 | 10.5 to 1590 | 2.7 to 2650 | 
Cc1ccc(N(C(=O)OC[C@H]2CC[C@H](COCC(=O)O)CC2)c2cccc(F)c2)cc1 | 10.5 to 1590 | 2.7 to 2650 | 
Cc1ccc(N(C(=O)OC[C@H]2CC[C@@H](COCC(=O)O)CC2)c2ccccc2)cc1 | 10.5 to 1590 | 2.7 to 2650 | 
O=C(O)COC[C@H]1CC[C@H](CNC(=O)N(c2ccccc2)c2cccc(Cl)c2F)CC1 | 10.5 to 1590 | 2.7 to 2650 | 
O=C(O)COC[C@H]1CC[C@H](COC(=O)N(c2ccccc2)c2ccc(F)c(Cl)c2)CC1 | 10.5 to 1590 | 2.7 to 2650 | 
COc1cccc(N(C(=O)OC[C@H]2CC[C@H](COCC(=O)O)CC2)c2ccccc2)c1 | 10.5 to 1590 | 2.7 to 2650 | 
O=C(O)COC[C@H]1CC[C@H](COC(=O)N(c2ccc(Cl)cc2)c2cccc(F)c2)CC1 | 10.5 to 1590 | 2.7 to 2650 | 
O=C(O)COC[C@H]1CC[C@H](COC(=O)N(c2ccccc2)c2cccnc2)CC1 | 10.5 to 1590 | 2.7 to 2650 | 
O=C(O)COC[C@H]1CC[C@H](COC(=O)N(c2ccc(F)cc2)c2cccc(F)c2)CC1 | 10.5 to 1590 | 2.7 to 2650 | 
COc1ccc(N(C(=O)NC[C@H]2CC[C@H](COCC(=O)O)CC2)c2ccccc2)c(C)c1 | 10.5 to 1590 | 2.7 to 2650 | 
